Measurements: patent publication US8420657B2 (Novartis AG, priority 2008, dated 2013)

Key:
GST-JAK2(808-1132) = target: T1, GST-JAK2(808-1132) (Homo sapiens, UniProt O60674); test: JAK2 kinase assay (Caliper mobility shift, LabChip 3000); format: biochemical
T1 construct: GST-JAK2(808-1132); purchased Invitrogen (Carlsbad, USA) #4288
Method in brief: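 Eight-point compound series (final 10–0.003 μM) tested on purchased GST-JAK2 kinase domain (808-1132). Peptide FITC-JAK3tide plus ATP reacted 60 min, 30 °C, then quenched with EDTA; turnover from charge-based separation of substrate and product.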

[1] = system: JAK1/JAK2-dependent nuclear translocation of STAT1-GFP in HT1080 fibrosarcoma cells; test: STAT1 nuclear translocation assay (Cellomics), IFN-γ stimulated HT1080 STAT1-GFP cells; format: cell-based; details: Homo sapiens, HT-1080, STAT1 translocation pathway
Method in brief: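 IC50 derived from percent nuclear STAT1-GFP translocation, computed from nuclear minus cytoplasmic GFP intensity against untreated baseline and DMSO-stimulated control. Stable HT1080 STAT1-GFP cells received compound (0.003–10 μM, 0.1% DMSO) 30 min ahead of a 2 h 100 ng/ml IFN-γ stimulus, then fixation and Hoechst nuclear masking.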

T1 sequence (O60674 808-1132): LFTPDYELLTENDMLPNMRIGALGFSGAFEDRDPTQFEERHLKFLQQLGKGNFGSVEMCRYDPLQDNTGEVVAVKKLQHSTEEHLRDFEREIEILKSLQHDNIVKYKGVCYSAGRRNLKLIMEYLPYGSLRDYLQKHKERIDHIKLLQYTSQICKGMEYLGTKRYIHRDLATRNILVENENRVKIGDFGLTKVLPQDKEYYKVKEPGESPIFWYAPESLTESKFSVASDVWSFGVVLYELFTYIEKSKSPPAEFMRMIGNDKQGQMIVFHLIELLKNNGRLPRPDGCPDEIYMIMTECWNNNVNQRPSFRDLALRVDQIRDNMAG

| Compound | IC50 (GST-JAK2(808-1132)) [nM] | IC50 [1] [nM] |
| --- | --- | --- |
| Cc1cc(Nc2ncc3ccn(-c4ccc(C(=O)N5CCOCC5)c(Cl)c4)c3n2)ccc1F [Example 90, {2-Chloro-4-[2-(4-fluoro-3-methyl-phenylamino)-pyrrolo[2,3-d]pyrimidin-7-yl]-phenyl}-morpholin-4-yl-methanone] | 3.4 | 715 |
| Cc1cc(Nc2ncc3ccn(-c4ccc(C(=O)N5CCOCC5)c(C)c4)c3n2)ccc1F [Example 91, {4-[2-(4-Fluoro-3-methyl-phenylamino)-pyrrolo[2,3-d]pyrimidin-7-yl]-2-methyl-phenyl}-morpholin-4-yl-methanone] | < 3 | 435 |
| Cc1cc(Nc2ncc3ccn(-c4ccc(C(=O)N5CCOCC5)c(F)c4)c3n2)ccc1F [Example 92, {2-Fluoro-4-[2-(4-fluoro-3-methyl-phenylamino)-pyrrolo[2,3-d]pyrimidin-7-yl]-phenyl}-morpholin-4-yl-methanone] | 4.2 | 260 |
| CN1CCN(Cc2cccc(Nc3ncc4ccn(-c5ccc(S(C)(=O)=O)cc5)c4n3)c2)CC1 [Example 93] | < 3 | 191 |
| CN1CCN(C(=O)c2ccc(Nc3ncc4ccn(-c5ccc(S(C)(=O)=O)cc5)c4n3)cc2Cl)CC1 [Example 94, {2-Chloro-4-[7-(4-methanesulfonyl-phenyl)-7H-pyrrolo[2,3-d]pyrimidin-2-ylamino]-phenyl}-(4-methyl-piperazin-1-yl)-methanone] | 3.8 | 259 |
| CS(=O)(=O)c1ccc(-n2ccc3cnc(Nc4ccc(C#N)cc4)nc32)cc1 [Example 95, 4-[7-(4-Methanesulfonyl-phenyl)-7H-pyrrolo[2,3-d]pyrimidin-2-ylamino]-benzonitrile] | 16.5 | 2360 |
| CC(C)Oc1ccc(Nc2ncc3ccn(-c4ccc(CN5CCOCC5)c(F)c4)c3n2)cc1 [Example 97, [7-(3-Fluoro-4-morpholin-4-ylmethyl-phenyl)-7H-pyrrolo[2,3-d]pyrimidin-2-yl]-(4-isopropoxy-phenyl)-amine] | 9.4 | 1460 |
| CC(C)Oc1ccc(Nc2ncc3ccn(-c4ccc(C(=O)N5CCOCC5)c(F)c4)c3n2)cc1 [Example 98, {2-Fluoro-4-[2-(4-isopropoxy-phenylamino)-pyrrolo[2,3-d]pyrimidin-7-yl]-phenyl}-morpholin-4-yl-methanone] | 5.6 | 575 |
| CC(C)Oc1ccc(Nc2ncc3ccn(-c4ccc(C(=O)N5CCOCC5)c(Cl)c4)c3n2)cc1 [Example 99, {2-Chloro-4-[2-(4-isopropoxy-phenylamino)-pyrrolo[2,3-d]pyrimidin-7-yl]-phenyl}-morpholin-4-yl-methanone] | 3.9 | 555 |
| Cc1cc(-n2ccc3cnc(Nc4ccc(OC(C)C)cc4)nc32)ccc1C(=O)N1CCOCC1 [Example 100, {4-[2-(4-Isopropoxy-phenylamino)-pyrrolo[2,3-d]pyrimidin-7-yl]-2-methyl-phenyl}-morpholin-4-yl-methanone] | < 3 | 510 |
| CC(C)Oc1ccc(Nc2ncc3ccn(-c4ccc(CC(=O)N5CCN(C)CC5)cc4)c3n2)cc1 [Example 101, 2-{4-[2-(4-Isopropoxy-phenylamino)-pyrrolo[2,3-d]pyrimidin-7-yl]-phenyl}-1-(4-methyl-piperazin-1-yl)-ethanone] | < 3 | 180 |
| CC(C)Oc1ccc(Nc2ncc3ccn(-c4ccc(CC(=O)N5CCOCC5)cc4)c3n2)cc1 [Example 102, 2-{4-[2-(4-Isopropoxy-phenylamino)-pyrrolo[2,3-d]pyrimidin-7-yl]-phenyl}-1-morpholin-4-yl-ethanone] | < 3 | 275 |
| CC(C)Oc1ccc(Nc2ncc3ccn(-c4ccc(C5(C(=O)N6CCN(C)CC6)CC5)cc4)c3n2)cc1 [Example 103, (1-{4-[2-(4-Isopropoxy-phenylamino)-pyrrolo[2,3-d]pyrimidin-7-yl]-phenyl}-cyclopropyl)-(4-methyl-piperazin-1-yl)-methanone] | < 3 | 220 |
| CC(C)Oc1ccc(Nc2ncc3ccn(-c4ccc(N5CCNCC5=O)cc4)c3n2)cc1 [Example 104, 1-{4-[2-(4-Isopropoxy-phenylamino)-pyrrolo[2,3-d]pyrimidin-7-yl]-phenyl}-piperazin-2-one] | 3.6 | 865 |
| CC(C)Oc1ccc(Nc2ncc3ccn(-c4ccc(N5CCCC5=O)cc4)c3n2)cc1 [Example 105, 1-{4-[2-(4-Isopropoxy-phenylamino)-pyrrolo[2,3-d]pyrimidin-7-yl]-phenyl}-pyrrolidin-2-one] | 11.5 | 5840 |
| CCN1CCN(Cc2ccc(-n3ccc4cnc(Nc5ccc(OC(C)C)cc5)nc43)cc2F)CC1 [Example 106, {7-[4-(4-Ethyl-piperazin-1-ylmethyl)-3-fluoro-phenyl]-7H-pyrrolo[2,3-d]pyrimidin-2-yl}-(4-isopropoxy-phenyl)-amine] | 33 | 8380 |

| Compound | IC50 (GST-JAK2(808-1132)) [nM] | IC50 [1] [nM] |
| --- | --- | --- |
| CC(C)Oc1ccc(Nc2ncc3ccn(-c4ccc(CN5CCCC5)cc4)c3n2)cc1 [Example 107, (4-Isopropoxy-phenyl)-[7-(4-pyrrolidin-1-ylmethyl-phenyl)-7H-pyrrolo[2,3-d]pyrimidin-2-yl]-amine] | 8.1 | 1840 |
| CC(C)Oc1ccc(Nc2ncc3ccn(-c4ccc(CN5CCCNCC5)c(F)c4)c3n2)cc1 [Example 108] | 6.6 | 1680 |
| CC(C)Oc1ccc(Nc2ncc3ccn(-c4ccc(CN5CCOCC5)cc4)c3n2)cc1 [Example 109, (4-Isopropoxy-phenyl)-[7-(4-morpholin-4-ylmethyl-phenyl)-7H-pyrrolo[2,3-d]pyrimidin-2-yl]-amine] | 8.3 | 310 |
| CC(C)Oc1ccc(Nc2ncc3ccn(-c4ccc(CN5CCOCC5)c(Cl)c4)c3n2)cc1 [Example 110, [7-(3-Chloro-4-morpholin-4-yl methyl-phenyl)-7H-pyrrolo[2,3-d]pyrimidin-2-yl]-(4-isopropoxy-phenyl)-amine] | 13.5 | 1110 |
| Cc1cc(-n2ccc3cnc(Nc4ccc(OC(C)C)cc4)nc32)ccc1CN1CCOCC1 [Example 111, (4-Isopropoxy-phenyl)-[7-(3-methyl-4-morpholin-4-ylmethyl-phenyl)-7H-pyrrolo[2,3-d]pyrimidin-2-yl]-amine] | 14.5 | 846 |
| CC(C)Oc1ccc(Nc2ncc3ccn(-c4ccc(CN5CCS(=O)(=O)CC5)c(F)c4)c3n2)cc1 [Example 112, {7-[4-(1,1-Dioxido-thiomorpholin-4-ylmethyl)-3-fluoro-phenyl]-7H-pyrrolo[2,3-d]pyrimidin-2-yl}-(4-isopropoxy-phenyl)-amine] | < 3 | 73 |
| CC(C)Oc1ccc(Nc2ncc3ccn(-c4ccc(CN5CCS(=O)(=O)CC5)c(Cl)c4)c3n2)cc1 [Example 113, {7-[3-Chloro-4-(1,1-dioxido-thiomorpholin-4-ylmethyl)-phenyl]-7H-pyrrolo[2,3-d]pyrimidin-2-yl}-(4-isopropoxy-phenyl)-amine] | 4.2 | 108 |
| CC(C)Oc1ccc(Nc2ncc3ccn(-c4ccc(C(C)O)cc4)c3n2)cc1 (centres unmarked) [Example 114, 1-{4-[2-(4-Isopropoxy-phenylamino)-pyrrolo[2,3-d]pyrimidin-7-yl]-phenyl}-ethanol] | 5.9 | 202 |
| CC(C)Oc1ccc(Nc2ncc3ccn(-c4ccc(CCN5CCOCC5)cc4)c3n2)cc1 [Example 115, (4-Isopropoxy-phenyl)-{7-[4-(2-morpholin-4-yl-ethyl)-phenyl]-7H-pyrrolo[2,3-d]pyrimidin-2-yl}-amine] | 16 | 714 |
| Cc1ccc(Nc2ncc3ccn(-c4cc(F)c(C(=O)N5CCOCC5)c(F)c4)c3n2)cc1Cl [Example 116, {4-[2-(3-Chloro-4-methyl-phenylamino)-pyrrolo[2,3-d]pyrimidin-7-yl]-2,6-difluoro-phenyl}-morpholin-4-yl-methanone] | 12.5 | 563 |
| Cc1ccc(Nc2ncc3ccn(-c4ccc(C5(C(=O)N6CCN(C)CC6)CC5)cc4)c3n2)cc1Cl [Example 117, (1-{4-[2-(3-Chloro-4-methyl-phenylamino)-pyrrolo[2,3-d]pyrimidin-7-yl]-phenyl}-cyclopropyl)-(4-methyl-piperazin-1-yl)-methanone] | 9.4 | 384 |
| Cc1ccc(Nc2ncc3ccn(-c4ccc(CN5CCOCC5)c(F)c4)c3n2)cc1Cl [Example 118, (3-Chloro-4-methyl-phenyl)-[7-(3-fluoro-4-morpholin-4-ylmethyl-phenyl)-7H-pyrrolo[2,3-d]pyrimidin-2-yl]-amine] | 75 | 1520 |
| Cc1ccc(Nc2ncc3ccn(-c4ccc(CN5CCOCC5)cc4)c3n2)cc1Cl [Example 119, (3-Chloro-4-methyl-phenyl)-[7-(4-morpholin-4-ylmethyl-phenyl)-7H-pyrrolo[2,3-d]pyrimidin-2-yl]-amine] | 88 | 1760 |
| CCN1CCN(Cc2ccc(-n3ccc4cnc(Nc5ccc(C)c(Cl)c5)nc43)cc2F)CC1 [Example 120, (3-Chloro-4-methyl-phenyl)-{7-[4-(4-ethyl-piperazin-1-ylmethyl)-3-fluoro-phenyl]-7H-pyrrolo[2,3-d]pyrimidin-2-yl}-amine] | 155 | 7850 |
| Cc1ccc(Nc2ncc3ccn(-c4ccc(CN5CCS(=O)(=O)CC5)c(F)c4)c3n2)cc1Cl [Example 121, (3-Chloro-4-methyl-phenyl)-{7-[4-(1,1-dioxido-thiomorpholin-4-ylmethyl)-3-fluoro-phenyl]-7H-pyrrolo[2,3-d]pyrimidin-2-yl}-amine] | 15.5 | 152 |
